Measurements published in patent US9078446B2, “Use of N-(tetrazol-4-yl)- or N-(triazol-3-yl)arylcarboxamides or their salts for controlling unwanted plants in areas of transgenic crop plants being tolerant to HPPD inhibitor herbicides” (BAYER INTELLECTUAL PROPERTY GMBH, priority 2011, dated 2015).

Assays:
Format in all cases: in vivo
[1] = test system: transgenic tobacco plants expressing mutant Pseudomonas fluorescens HPPD G336W (PfHPPD-G336W); assay: Symptoms due to herbicide application on transgenic tobacco plants (damage classes 0-3); conditions: PfHPPD-G336W line 646, one week after application
Text: (§1) Genes coding for the selected HPPD were obtained from a member of the group of organisms consisting of Avena sativa, Pseudomonas fluorescens mutant G336W, Blepharisma japonicum and Kordia algicida and cloned into the binary vector pBin19 allowing the integration of DNA into the tobacco genome, under the control of the CaMV35S promoter. For the cloning procedures, see A2 above for Avena sativa, see B2 above for Pseudomonas fluorescens, mutant G336W, see PCT/EP2010/070567 (published as WO 2011/076882, Example 5; for Blepharisma japonicum (FMP37) and see PCT/EP2010/070575, Example 5 for Kordia algicida (FMP27). Between the sequence corresponding to the promoter and the sequence coding for the HPPD a DNA sequence coding for a transit peptide to the chloroplast was inserted, in order to add at the N-terminal extremity of the protein a target signal to allow the localization of the HPPD protein into the plant chloroplast.
(§2) Seeds harvested from TO transformants will be put on standard soil for germination. Three weeks later plantlets (T1) will be transferred to single pots and grown under standard cultivation conditions (PCT/EP2010/070575, published as WO 2011/076889). Two weeks later, plants were sprayed with several N-(tetrazol-4-yl)- or N-(triazol-3-yl)arylcarboxamides as defined above.
(§3) Tables F1 to F5: Evaluation of the Symptoms Observed Due to the Application of the Herbicides on Transgenic Tobacco Plants, Expressing the Mutant Pseudomonas fluorescens HPPD G336W, the Avena HPPD (AvHPPD), the HPPD from Kordia algicida FMP27 or the HPPD from Blepharisma japonicum (FMP37), Compared to Non-Tranformed Tobacco Plants (“Wt”).
(§4) The herbicides (with “g Al/ha” meaning “g active ingredient/ha”) were applied on 8 to 10 plants originated from 1 to 3 independent transgenic events per transgene.
(§5) The symptoms were evaluated and classified as following: • 3=Very strong damage • 2=Strong damage • 1=Light and transient damage • 0=No damage

[2] = test system: transgenic tobacco plants expressing Avena HPPD (AvHPPD); assay: as above; conditions: AvHPPD line 659, one week after application
Text: as §1, §2, §3, §4, §5

[3] = test system: transgenic tobacco plants expressing HPPD from Kordia algicida FMP27; assay: as above; conditions: one week after application
Text: as §1, §2, §3, §4, §5

[4] = test system: transgenic tobacco plants expressing HPPD from Blepharisma japonicum (FMP37); assay: as above; conditions: one week after application
Text: as §1, §2, §3, §4, §5

[5] = test system: cotton plants expressing FMP 27 and FMP 37; assay: Tolerance to HPPD inhibitors of cotton plants expressing tolerant HPPD enzymes; conditions: T1 cotton plants; one week after application
Text: Genes coding for the selected HPPD were obtained from a member of the group of organisms consisting of Blepharisma japonicum and Kordia algicida and cloned into an appropriate binary vector allowing the integration of DNA into the cotton genome, under the control of the CaMV35S promoter. For the respective cloning procedures, see WO2011076882 (PCT/EP2010/070567), Example 11; for Blepharisma japonicum (FMP37) and WO2011076889 (PCT/EP2010/070575), Example 11 for Kordia algicida (FMP27).
Between the sequence corresponding to the promoter and the sequence coding for the HPPD a DNA sequence coding for a transit peptide to the chloroplast was inserted, in order to add at the N-terminal extremity of the protein a target signal to allow the localization of the HPPD protein into the plant chloroplast. Cotton transformation was achieved as described in Example 12 of WO2011076882 (PCT/EP2010/070567) for Blepharisma japonicum (FMP37) and WO2011076889 (PCT/EP2010/070575) for Kordia algicida (FMP27). Seeds from T0 events showing tolerance to tembotrione were harvested.
T1 Cotton seeds were transferred to single pots and grown under standard cultivation conditions, see WO2011076882 (PCT/EP2010/070567) for Blepharisma japonicum (FMP37) and WO2011076889 (PCT/EP2010/070575) for Kordia algicida (FMP27).
At least 4 weeks later, plants will be sprayed with several N-(tetrazol-4-yl)- or N-(triazol-3-yl)arylcarboxamides as defined above.

[6] = test system: soybean plants expressing Pseudomonas fluorescens G336W mutant, FMP 27 and FMP 37; assay: Tolerance to HPPD inhibitors of soybean plants expressing tolerant HPPD enzymes; conditions: T1 soybean plants; one week after application
Text: Genes coding for the selected HPPD were obtained from a member of the group of organisms consisting of Blepharisma japonicum and Kordia algicida and cloned into an appropriate binary vector allowing the integration of DNA into the soybean genome, under the control of the CaMV35S promoter. For the respective cloning procedures, see WO2011076882 (PCT/EP2010/070567), Example 9; for Blepharisma japonicum (FMP37) and WO2011076889 (PCT/EP2010/070575), Example 9 for Kordia algicida (FMP27).
Between the sequence corresponding to the promoter and the sequence coding for the HPPD a DNA sequence coding for a transit peptide to the chloroplast was inserted, in order to add at the N-terminal extremity of the protein a target signal to allow the localization of the HPPD protein into the plant chloroplast. By using the vectors “pFCO112” (Blepharisma japonicum, WO2011076882), pFCO116 (Korida algicida, WO2011076889), and pFCO117” (see Example B2, above), soybean transformation was achieved as described in Example 10 of WO2011076882 (PCT/EP2010/070567) for Blepharisma japonicum (FMP37) and WO2011076889 (PCT/EP2010/070575) for Kordia algicida (FMP27). Seeds from TO events showing tolerance to tembotrione were harvested.
T1 Soybean seeds were transferred to single pots and grown under standard cultivation conditions, see WO2011076882.
Two weeks later, plants will be sprayed with several N-(tetrazol-4-yl)- or N-(triazol-3-yl)arylcarboxamides as defined above.

[7] = test system: transgenic tobacco plants expressing tolerant HPPD enzymes; assay: Tolerance of tobacco plants expressing tolerant HPPD enzymes (all transgenes); conditions: for tolerance of the transgenic tobacco plants (symptoms due to application of the herbicide): T1 plants sprayed, evaluated one week after application; for sensitivity of transgenic tobacco plants compared to wild type (wt) plants: all tested independent lines, agronomically relevant dose
Text: as §1, §2, §3, §4, §5

[8] = test system: non-transformed tobacco plants (Wt); assay: Symptoms due to herbicide application on tobacco plants (damage classes 0-3); conditions: one week after application
Text: as §2, §3, §4, §5

[9] = 50 g AI/ha, WP20 + oilseed rape methyl ester + ammonium sulfate

SMILES: Cn1nnnc1NC(=O)c1ccc(C(F)(F)F)cc1S(C)(=O)=O [Compound 4-25]
- number of plants with Damage 0 (No damage) ([1]; 50 g Al/ha): 10
- number of plants with Damage 1 (Light and transient damage) ([1]; 50 g Al/ha): 0
- number of plants with Damage 2 (Strong damage) ([1]; 50 g Al/ha): 0
- number of plants with Damage 3 (Very strong damage) ([1]; 50 g Al/ha): 0
- number of plants with Damage 0 (No damage) ([2]; 50 g Al/ha): 6
- number of plants with Damage 1 (Light and transient damage) ([2]; 50 g Al/ha): 1
- number of plants with Damage 2 (Strong damage) ([2]; 50 g Al/ha): 0
- number of plants with Damage 3 (Very strong damage) ([2]; 50 g Al/ha): 3
- number of plants with Damage 0 (No damage) ([3]; FMP27 line 733, 50 g Al/ha): 9
- number of plants with Damage 1 (Light and transient damage) ([3]; FMP27 line 733, 50 g Al/ha): 1
- number of plants with Damage 2 (Strong damage) ([3]; FMP27 line 733, 50 g Al/ha): 0
- number of plants with Damage 3 (Very strong damage) ([3]; FMP27 line 733, 50 g Al/ha): 0
- number of plants with Damage 0 (No damage) ([3]; FMP27 line 734, 50 g Al/ha): 6
- number of plants with Damage 1 (Light and transient damage) ([3]; FMP27 line 734, 50 g Al/ha): 3
- number of plants with Damage 2 (Strong damage) ([3]; FMP27 line 734, 50 g Al/ha): 0
- number of plants with Damage 3 (Very strong damage) ([3]; FMP27 line 734, 50 g Al/ha): 1
- number of plants with Damage 0 (No damage) ([3]; FMP27 line 735, 50 g Al/ha): 5
- number of plants with Damage 1 (Light and transient damage) ([3]; FMP27 line 735, 50 g Al/ha): 3
- number of plants with Damage 2 (Strong damage) ([3]; FMP27 line 735, 50 g Al/ha): 0
- number of plants with Damage 3 (Very strong damage) ([3]; FMP27 line 735, 50 g Al/ha): 0
- number of plants with Damage 0 (No damage) ([4]; FMP37 line 749, 50 g Al/ha): 8
- number of plants with Damage 1 (Light and transient damage) ([4]; FMP37 line 749, 50 g Al/ha): 0
- number of plants with Damage 2 (Strong damage) ([4]; FMP37 line 749, 50 g Al/ha): 0
- number of plants with Damage 3 (Very strong damage) ([4]; FMP37 line 749, 50 g Al/ha): 2
- number of plants with Damage 0 (No damage) ([4]; FMP37 line 754, 50 g Al/ha): 3
- number of plants with Damage 1 (Light and transient damage) ([4]; FMP37 line 754, 50 g Al/ha): 5
- number of plants with Damage 2 (Strong damage) ([4]; FMP37 line 754, 50 g Al/ha): 1
- number of plants with Damage 3 (Very strong damage) ([4]; FMP37 line 754, 50 g Al/ha): 1
- number of plants with Damage 0 (No damage) ([4]; FMP37 line 795, 50 g Al/ha): 7
- number of plants with Damage 1 (Light and transient damage) ([4]; FMP37 line 795, 50 g Al/ha): 0
- number of plants with Damage 2 (Strong damage) ([4]; FMP37 line 795, 50 g Al/ha): 1
- number of plants with Damage 3 (Very strong damage) ([4]; FMP37 line 795, 50 g Al/ha): 2
- tolerance of transgenic plants compared to the wild-type cotton plants [5]: superior tolerance
- tolerance of transgenic plants compared to the wild-type soybean plants [6]: superior tolerance
- tolerance of the transgenic tobacco plants (symptoms due to application of the herbicide) [7]: good tolerance
- sensitivity of transgenic tobacco plants compared to wild type (wt) plants [7]: less sensitive
- number of plants with Damage 0 (No damage) ([8]; 50 g Al/ha): 0
- number of plants with Damage 1 (Light and transient damage) ([8]; 50 g Al/ha): 0
- number of plants with Damage 2 (Strong damage) ([8]; 50 g Al/ha): 0
- number of plants with Damage 3 (Very strong damage) ([8]; 50 g Al/ha): 10

SMILES: COCc1c(S(C)(=O)=O)ccc(C(=O)Nc2nnnn2C)c1Cl [Compound 4-253]
- number of plants with Damage 0 (No damage) ([1]; 50 g AI/ha): 9
- number of plants with Damage 1 (Light and transient damage) ([1]; 50 g AI/ha): 0
- number of plants with Damage 2 (Strong damage) ([1]; 50 g AI/ha): 0
- number of plants with Damage 3 (Very strong damage) ([1]; 50 g AI/ha): 1
- number of plants with Damage 0 (No damage) ([2]; 50 g AI/ha): 3
- number of plants with Damage 1 (Light and transient damage) ([2]; 50 g AI/ha): 0
- number of plants with Damage 2 (Strong damage) ([2]; 50 g AI/ha): 0
- number of plants with Damage 3 (Very strong damage) ([2]; 50 g AI/ha): 7
- number of plants with Damage 0 (No damage) ([3]; 50 g AI/ha, FMP27 line 733): 4
- number of plants with Damage 1 (Light and transient damage) ([3]; 50 g AI/ha, FMP27 line 733): 4
- number of plants with Damage 2 (Strong damage) ([3]; 50 g AI/ha, FMP27 line 733): 2
- number of plants with Damage 3 (Very strong damage) ([3]; 50 g AI/ha, FMP27 line 733): 0
- number of plants with Damage 0 (No damage) ([3]; 50 g AI/ha, FMP27 line 734): 6
- number of plants with Damage 1 (Light and transient damage) ([3]; 50 g AI/ha, FMP27 line 734): 1
- number of plants with Damage 2 (Strong damage) ([3]; 50 g AI/ha, FMP27 line 734): 2
- number of plants with Damage 3 (Very strong damage) ([3]; 50 g AI/ha, FMP27 line 734): 1
- number of plants with Damage 0 (No damage) ([3]; 50 g AI/ha, FMP27 line 735): 2
- number of plants with Damage 1 (Light and transient damage) ([3]; 50 g AI/ha, FMP27 line 735): 5
- number of plants with Damage 2 (Strong damage) ([3]; 50 g AI/ha, FMP27 line 735): 0
- number of plants with Damage 3 (Very strong damage) ([3]; 50 g AI/ha, FMP27 line 735): 3
- number of plants with Damage 0 (No damage) ([4]; 50 g AI/ha, FMP37 line 749): 7
- number of plants with Damage 1 (Light and transient damage) ([4]; 50 g AI/ha, FMP37 line 749): 2
- number of plants with Damage 2 (Strong damage) ([4]; 50 g AI/ha, FMP37 line 749): 0
- number of plants with Damage 3 (Very strong damage) ([4]; 50 g AI/ha, FMP37 line 749): 1
- number of plants with Damage 0 (No damage) ([4]; 50 g AI/ha, FMP37 line 754): 6
- number of plants with Damage 1 (Light and transient damage) ([4]; 50 g AI/ha, FMP37 line 754): 2
- number of plants with Damage 2 (Strong damage) ([4]; 50 g AI/ha, FMP37 line 754): 1
- number of plants with Damage 3 (Very strong damage) ([4]; 50 g AI/ha, FMP37 line 754): 1
- number of plants with Damage 0 (No damage) ([4]; 50 g AI/ha, FMP37 line 795): 3
- number of plants with Damage 1 (Light and transient damage) ([4]; 50 g AI/ha, FMP37 line 795): 4
- number of plants with Damage 2 (Strong damage) ([4]; 50 g AI/ha, FMP37 line 795): 0
- number of plants with Damage 3 (Very strong damage) ([4]; 50 g AI/ha, FMP37 line 795): 3
- tolerance of transgenic plants compared to the wild-type cotton plants [5]: superior tolerance
- tolerance of transgenic plants compared to the wild-type soybean plants [6]: superior tolerance
- tolerance of the transgenic tobacco plants (symptoms due to application of the herbicide) [7]: good tolerance
- sensitivity of transgenic tobacco plants compared to wild type (wt) plants [7]: less sensitive
- number of plants with Damage 0 (No damage) [8, 9]: 0
- number of plants with Damage 1 (Light and transient damage) [8, 9]: 0
- number of plants with Damage 2 (Strong damage) [8, 9]: 0
- number of plants with Damage 3 (Very strong damage) [8, 9]: 10
